Source: patent US20160039825A1 (BIOGEN MA INC., priority 2013, published 2016)

Target: T1, Human ATX protein (Homo sapiens, UniProt Q13822)
T1 construct: made in house
Assay: Autotaxin (ATX) assay, FRET with FS-3 substrate
Assay type: biochemical
Details: upper bound bins (no greater than 100, 250 or 500 nM); FS-3 2 μM, ATX 1.0 μg/mL
Text: ATX (Autotaxin) is a 125 KDa glycoprotein with lysophospholipase D (LPLD) activity that generates the bioactive lipid lysophosphatidic acid (LPA) from lysophosphatidylcholine (LPC). The ATX biochemical assay utilizes a FRET (fluorescence resonance energy transfer) technology platform. The fluorescence signal of FRET substrate FS-3 is quenched due to intra-molecular FRET of a fluorophore to a non-fluorescing quencher (Ferguson, C. G., et al., Org Lett. 2006 May 11; 8(10): 2023-2026, which is incorporated by reference in its entirety). ATX catalyzes the hydrolysis of the substrate which separates the dabsyl quencher from the fluorescein reporter, which becomes fluorescent. The reaction is monitored by a SpectraMax M5 (Molecular Devices, Sunnyvale, Calif.) with at excitation wavelength 485 nm and emission wavelength […].
Fatty acid free-BSA (Sigma A8806): 10 mg/mL in H2O, stored at 4° C.
2×ATX assay buffer: 100 mM Tris, 280 mM NaCl, 10 mM KCl, 2 mM CaCl2, 2 mM MgCl2, pH 7.4.
Human ATX protein: expressed and purified in house. Stored at −80° C.
Substrate FS-3 (Echelon, L-2000): 100 μg in 77.74 μL H2O (1 mM stock), stored at −20° C.
384-well flat bottom plates—Corning #3575.
Compound dilution—All compounds were provided at 10 mM in 100% DMSO. In the first well, 2 μL of 10 mM compound was added to 78 μL of DMSO (1:40 dilution). In subsequent wells 3-fold dilution (total 10 dilutions) were performed.
1×ATX assay buffer was made up with a final concentration of 1 mg/mL fatty acid free-BSA using 2×ATX assay buffer, 10 mg/ml fatty acid free-BSA and ddH2O.
ATX protein was diluted with 1×ATX assay buffer to a concentration of 1.32 μg/mL (1.32×). 38 μL was added per well to the assay plate. The final concentration of ATX in the reaction as 1.0 μg/mL.
2 μL per well of compounds was transferred to provide the desired concentration. The plate was centrifuged, then incubated at room temperature for 30 minutes on the shaker.
FS-3 was diluted with 1×ATX assay buffer to a concentration of FS-3 of 10 μM (5×). Then, 10 μL was added per well to the assay plate. The final concentration of FS-3 in the reaction was 2 μM. The plate was centrifuged. The plate was kept shaking at room temperature for 2 hours. Because FS-3 substrate is light sensitive, plates were kept covered and protected from light.
Fluorescence was measured using SpectraMax M5 (excitation at 485 nm/emission at 538 nm, top read).

Row | Compound | IC50
1 | O=C(O)c1cc2n(n1)CCCN(C(=O)CNc1cc(C(F)(F)F)cc(C(F)(F)F)c1)C2 [Example 116, 5-(2-((3,5-Bis(trifluoromethyl)phenyl)amino)acetyl)-5,6,7,8-tetrahydro-4H-pyrazolo[1,5-a][1,4]diazepine-2-carboxylic acid] | ≤ 500 nM
2 | O=C(OCc1cc(Cl)cc(Cl)c1)N1CCCn2nc(C(=O)N3CCC(C(F)(F)F)CC3)cc2C1 [Example 22, 3,5-Dichlorobenzyl 2-(4-(trifluoromethyl)piperidine-1-carbonyl)-7,8-dihydro-4H-pyrazolo[1,5-a][1,4]diazepine-5(6H)-carboxylate] | ≤ 100 nM
3 | O=C(OCc1cc(Cl)cc(C(F)(F)F)c1)N1CCCn2nc(C(=O)N3CCNCC34CC4)cc2C1 [Example 210] | ≤ 100 nM
4 | C#CCCCCNC(=O)c1cc2n(n1)CCCN(C(=O)OCc1cc(C(F)(F)F)cc(C(F)(F)F)c1)C2 [Example 190] | ≤ 100 nM
5 | CC1(C)CNCCN1C(=O)c1cc2n(n1)CCN(C(=O)OCc1cc(C(F)(F)F)cc(C(F)(F)F)c1)C2 [Example 441] | ≤ 100 nM
6 | O=C(NC1CC1)c1cc2n(n1)CCCN(C(=O)OCc1cc(C(F)(F)F)cc(C(F)(F)F)c1)C2 [Example 503] | ≤ 100 nM
7 | CCOC(=O)c1cc2n(c1)CCCN(C(=O)OCc1cc(C(F)(F)F)cc(C(F)(F)F)c1)C2 [Example 106, 2-(3,5-Bis(trifluoromethyl)benzyl) 8-ethyl 4,5-dihydro-1H-pyrrolo[1,2-a][1,4]diazepine-2,8(3H)-dicarboxylate] | ≤ 100 nM
8 | CC1CCN(C(=O)c2cc3n(n2)CCN(C(=O)OCc2cc(C(F)(F)F)cc(C(F)(F)F)c2)C3)CC1 [Example 488] | ≤ 100 nM
9 | O=C(OCc1cc(Cl)cc(C(F)(F)F)c1)N1CCCn2nc(C(=O)N3CC4CNCC4C3)cc2C1 (centres unmarked) [Example 170] | ≤ 100 nM
10 | O=C(OCc1cc(C(F)(F)F)cc(C(F)(F)F)c1)N1CCCn2nc(C(=O)N3CCNCC34CCCC4)cc2C1 [Example 240] | ≤ 100 nM
11 | CC1CN(c2cc3n(n2)CCCN(C(=O)OCc2cc(C(F)(F)F)cc(C(F)(F)F)c2)C3)CCN1 (centres unmarked) [Example 343] | ≤ 100 nM
12 | CN1CCN(C(=O)c2cc3n(n2)CCCN(C(=O)OCc2cc(Cl)cc(C(F)(F)F)c2)C3)CC1C(=O)O (centres unmarked) [Example 185] | ≤ 100 nM
13 | CC(NC1=NCCS1)c1cc2n(n1)CCCN(C(=O)OCc1cc(Cl)cc(C(F)(F)F)c1)C2 (centres unmarked) [Example 156, 3-chloro-5-(trifluoromethyl)benzyl 2-(1-((4,5-dihydrothiazol-2-yl)amino)ethyl)-7,8-dihydro-4H-pyrazolo[1,5-a][1,4]diazepine-5(6H)-carboxylate] | ≤ 100 nM
14 | Cc1cc(COC(=O)N2CCCn3nc(C(=O)O)cc3C2)cc(C(F)(F)F)c1 [Example 109, 5-(((3-Methyl-5-(trifluoromethyl)benzyl)oxy)carbonyl)-5,6,7,8-tetrahydro-4H-pyrazolo[1,5-a][1,4]diazepine-2-carboxylic acid] | ≤ 100 nM
15 | CC1(C)COCCN1CC(=O)c1cc2n(n1)CCCN(C(=O)OCc1cc(Cl)cc(C(F)(F)F)c1)C2 [Example 267] | ≤ 100 nM
16 | CON(C)C(=O)c1cc2n(n1)CCN(C(=O)OCc1cc(C(F)(F)F)cc(C(F)(F)F)c1)C2 [Example 400, 3,5-bis(trifluoromethyl)benzyl 2-(methoxy(methyl)carbamoyl)-6,7-dihydropyrazolo[1,5-a]pyrazine-5(4H)-carboxylate] | ≤ 100 nM
17 | O=C(O)C1CC2CCCC(C1)N2C(=O)c1cc2n(n1)CCCN(C(=O)OCc1cc(C(F)(F)F)cc(C(F)(F)F)c1)C2 (centres unmarked) [Example 63, 9-(5-((3,5-Bis(trifluoromethyl)benzyloxy)carbonyl)-5,6,7,8-tetrahydro-4H-pyrazolo[1,5-a][1,4]diazepine-2-carbonyl)-9-aza-bicyclo[3.3.1]nonane-3-carboxylic acid] | ≤ 100 nM
18 | NC1CN(C(=O)c2cc3n(n2)CCN(C(=O)OCc2cc(Cl)cc(C(F)(F)F)c2)C3)C1 [Example 431] | ≤ 100 nM

Row | Compound | IC50
19 | O=C(O)c1nn2c(c1Cl)CN(C(=O)OCc1cc(C(F)(F)F)cc(C(F)(F)F)c1)CCC2 [Example 110, 5-(((3,5-Bis(trifluoromethyl)benzyl)oxy)carbonyl)-3-chloro-5,6,7,8-tetrahydro-4H-pyrazolo[1,5-a][1,4]diazepine-2-carboxylic acid] | ≤ 100 nM
20 | O=C(OCc1cc(C(F)(F)F)cc(C(F)(F)F)c1)N1CCCn2nc(CN3CCCCC3)cc2C1 [Example 291] | ≤ 250 nM
21 | O=C(OCc1cc(Cl)cc(C(F)(F)F)c1)N1CCCn2nc(C3CN4CCCC[C@H]4CO3)cc2C1 (mixture of isomers) [Example 253, 3-chloro-5-(trifluoromethyl)benzyl 2-((9aS)-octahydropyrido[2,1-c][1,4]oxazin-3-yl)-7,8-dihydro-4H-pyrazolo[1,5-a][1,4]diazepine-5(6H)-carboxylate] | ≤ 100 nM
22 | O=C(O)C1CC2CCCC(C1)N2C(=O)c1cc2n(n1)CCCN(C(=O)OCc1cc(F)cc(Cl)c1)C2 (centres unmarked) [Example 61, 9-(5-((3-Chloro-5-fluorobenzyloxy)carbonyl)-5,6,7,8-tetrahydro-4H-pyrazolo[1,5-a][1,4]diazepine-2-carbonyl)-9-aza-bicyclo[3.3.1]nonane-3-carboxylic acid] | ≤ 100 nM
23 | O=C1CN(C(=O)c2cc3n(n2)CCCN(C(=O)OCc2cc(Cl)cc(C(F)(F)F)c2)C3)CCN1 [Example 212] | ≤ 100 nM
24 | N#CC1CN(C(=O)c2cc3n(n2)CCCN(C(=O)OCc2cc(C(F)(F)F)cc(C(F)(F)F)c2)C3)CCN1 (centres unmarked) [Example 246] | ≤ 100 nM
25 | CN1CCN(C(=O)c2cc3n(n2)CCCN(C(=O)OCc2cc(C(F)(F)F)cc(C(F)(F)F)c2)C3)C2(CCC2)C1 [Example 233] | ≤ 100 nM
26 | NC(=O)c1cc2n(n1)CCN(C(=O)OCc1cc(C(F)(F)F)cc(C(F)(F)F)c1)C2 [Example 491] | ≤ 100 nM
27 | O=C(OCc1cc(C(F)(F)F)cc(C(F)(F)F)c1)N1CCCn2nc(CN3C4CCCC3CC4)cc2C1 [Example 292] | ≤ 250 nM
28 | O=C(NCC1CC1)c1cc2n(n1)CCCN(C(=O)OCc1cc(C(F)(F)F)cc(C(F)(F)F)c1)C2 [Example 502] | ≤ 100 nM
29 | O=C(OCc1cc(Cl)cc(Cl)c1)N1CCCn2nc(C(=O)N3CCC(O)CC3)cc2C1 [Example 101, 3,5-Dichlorobenzyl 2-(4-hydroxypiperidine-1-carbonyl)-7,8-dihydro-4H-pyrazolo[1,5-a][1,4]diazepine-5(6H)-carboxylate] | ≤ 100 nM
30 | N#Cc1cc2n(n1)CCCN(C(=O)OCc1cc(F)cc(C(F)(F)F)c1)C2 [Example 129] | ≤ 500 nM
31 | CC(C)(C)OC(=O)N1C2CCC1CN(C(=O)c1cc3n(n1)CCN(C(=O)OCc1cc(Cl)cc(C(F)(F)F)c1)C3)C2 [Example 478] | ≤ 100 nM
32 | C[C@@H]1CNC[C@H](C)N1C(=O)c1cc2n(n1)CCCN(C(=O)OCc1cc(C(F)(F)F)cc(C(F)(F)F)c1)C2 [Example 163] | ≤ 100 nM
33 | CC(c1cc2n(n1)CCN(C(=O)OCc1cc(C(F)(F)F)cc(C(F)(F)F)c1)C2)N1CCN(C(=O)OC(C)(C)C)CC1 (centres unmarked) [Example 448] | ≤ 100 nM
34 | O=C(OCc1cc(F)cc(C(F)(F)F)c1)N1CCn2cc(C(F)(F)F)nc2C1 [Example 126, 3-Fluoro-5-(trifluoromethyl)benzyl 2-(trifluoromethyl)-5,6-dihydroimidazo[1,2-a]pyrazine-7(8H)-carboxylate] | ≤ 500 nM
35 | CN1CCN(C(=O)c2nn3c(c2F)CN(C(=O)OCc2cc(Cl)cc(C(F)(F)F)c2)CCC3)CC1 [Example 515] | ≤ 100 nM
